{
  "source": "patent US8741319B2",
  "about": "“Methods and compositions for treating anxiety disorders or symptoms thereof” (Pondera Biotechnologies Inc., priority 2009, dated 2014)",
  "key": {"humans": {"system": "humans", "test": "Hot-water finger-immersion induced pain trials (Example 1)", "format": "in vivo, human", "conditions": "for undesirable side effects, first phase: 18 subjects, rolipram 50 μg, forskolin 200 mg, magnesium sulfate 2 g/5 g, caffeine 200 mg, each given within two-agent formulations; for side effects / complaints, second phase: 60 subjects, caffeine 50 mg, theophylline 300 mg, ULDN 5 μg, magnesium sulfate 750 mg, alone or combined; for pain thresholds and tolerance as compared to baseline latencies: index finger in 130° F. water, single dose, not blinded as to condition", "experimental": "For these trials, a hot-water finger-immersion pain paradigm was used, measuring both pain threshold and tolerance. The index finger of the non-dominant hand was submerged in 130° F. water, and the time to the experience of pain (threshold) and the need to withdraw (tolerance) were measured. Baseline scores were compared to those obtained under experimental conditions. Experimental conditions were not blinded for this study.\nFor the preliminary part of this study, 18 subjects (10 males, 8 females; ages 27-86) were given each of the following single-dose formulations on separate days, to determine the best doses for pain reduction and side-effect profiles:\nThe same induced pain paradigm was used for the second phase of this study. 60 subjects (38 males, 22 females, ages 18-86), including all of the subjects in the first phase of the study, participated in the study. All subjects were administered each of the following formulations in a single dose, on separate days; while 18 of these subjects (10 males, 8 females) were given these formulations using a twice daily administration over the course of 3 consecutive days. The following formulations were administered to each subject to assess the effect of each agent, as compared to baseline, as well as the synergistic impact of co-treatment: […]"}, "Healthy volunteers": {"system": "Healthy volunteers", "test": "Cold-pressor induced pain study (Example 8A)", "format": "in vivo, human", "conditions": "12 subjects, blinded, within-subject", "experimental": "In addition to the hot-water finger immersion studies described above, two Jeio Tech cold-pressor testing units were purchased since this methodology represents the state-of-the art in induced pain research.\nFollowing several preliminary multi-site trials using a wide variety of agents, doses, and formulations, a cold-pressor induced pain study was conducted in order to determine the impact of specific agents on the experience of pain threshold and tolerance. Healthy volunteers were recruited who were not taking any relevant medications or supplements, resulting in a total of 12 subjects (7 men, 5 women; ages 18-86). During the initial phase of this study, the following agents and doses were administered to subjects and pain threshold and tolerance latencies were assessed. […] Subjects were blinded as to each condition. Active agents were compared to each subject's baseline and placebo latencies, using a within-subject design. […]"}, "[1]": {"system": "patients in psychotherapy suffering from various Distress Dysfunction conditions", "test": "10 month trial, agents alone vs combined, 19 psychotherapy patients (Example 5)", "conditions": "for therapeutic benefits on Distress Dysfunction symptoms: 19 patients, 2 weeks per agent or formulation, agents not identified to patients", "experimental": "To determine the relative benefits of administering agents alone as compared to their combined synergistic benefits, a trial was conducted over a 10 month period with 19 patients in psychotherapy suffering from various Distress Dysfunction conditions, including anxiety, obsessive-compulsive disorders, depression, drug and alcohol addictions, behavioral addictions, psychogenic and neuropathic pain, eating disorders, and sexual dysfunctions.\nOver the course of 8 weeks, each patient was administered all of the individual agents. During the next 8 weeks, each patient rotated through the following formulations, each given for a 2 week period: […]\nAll patients already on an SSRI or SNRI continued on this medication in combination with ULDN."}, "[2]": {"system": "outpatient psychotherapy patients with various forms of Distress Dysfunction", "test": "Clinical case studies, outpatient psychotherapy patients (Example 8B)", "format": "in vivo, human", "conditions": "5 or 125 μg once daily within formulations", "procedure": "All treatment was unblinded, and explained as novel formulations for Distress Dysfunction. […] Synergistic Enhancers were often included in the formulations, particularly SSRI and SNRI medications that the patients were typically taking prior to adding the experimental formulations (about 25% of patients). For those patients already on an SSRI or SNRI, the following daily doses were used, once the patient was stabilized on the co-treatment formulation: escitalopram (10 mg, once daily), fluoxetine (20 mg, once daily), citalopram (20 mg, once daily), or venlafaxine (75 mg, once daily). For most patients, this was either the same or lower dose than previously prescribed. If the patient was not already on an SSRI or SNRI, one or more Synergistic Enhancers were added to the formulation for more serious conditions, including 5HTP (50 mg, twice daily), SAMe (200 mg, once daily), PharmaGABA (200 mg, once daily), and tyrosine (500 mg, once daily) (about 18% of patients). Ten pain patients began the treatment program using a prescription narcotic pain medication. […] As an alternative to narcotic pain medications, NSAIDs, especially white willow bark (250 mg, twice daily) were added to the formulation (about 10% of patients). […]"}, "subjects": {"system": "subjects", "test": "Hot-water finger-immersion pain threshold/tolerance, five subjects (Example 4)", "format": "in vivo, human", "conditions": "separate testing sessions"}, "males with ADHD": {"system": "males with ADHD", "test": "Attention-Deficit Disorder case studies (Example 10)", "format": "in vivo, human", "conditions": "for improvement of ADHD behavior and attention: single case studies (males)", "experimental": "To assess the therapeutic benefit of the novel cotreatment formulations of the invention with Attention-Deficit Disorders, three ongoing case studies are being conducted, one focused on the use of stimulants and the other based on “nutriceuticals.”\nA person with severe uncontrolled ADHD has had serious problems with their inappropriate behaviors, emotions, and attitudes, both at school and at home, for more than 8 years. […] NAC (600 mg, twice daily) was added to the ongoing medication. […] The young person was able to sit quietly for longer periods of time and was clearly more cooperative and socially appropriate. […] Increased improvement has been observed over the past month, and the cotreatment formulation is being continued.\nA person with moderate ADHD has had difficulties paying attention at school and cooperating at home. They have never been given prescription medications for the problem, and behavioral interventions have not been successful. […] Then, NAC (600 mg, twice daily), magnesium sulfate (500 mg, twice daily), and ginkgo biloba (120 mg, once daily) were added to the ALC. […] Progress has been steadily improving, using this novel cotreatment formulation during this 3 week trial, which is ongoing.\nA person with severe ADHD has had problems in all aspects of their life due to this disorder. Despite above average intelligence, they were unable to complete high school. After dropping out of school, they were able to earn a GED. Over time, they were unable to hold regular employment. […] They will continue this co-treatment formulation, given its obvious benefits."}},
  "note": "Entries after “also recorded” stand apart in the source; their conditions may differ.",
  "data": [
    {"smiles": "C=C[C@@]1(C)CC(=O)[C@]2(O)[C@@]3(C)[C@@H](O)CCC(C)(C)[C@@H]3[C@H](O)[C@H](OC(C)=O)[C@@]2(C)O1", "note": "[Forskolin]", "values": [
      {"measurement": "undesirable side effects, first phase", "setting": "humans", "result": "produced mild agitation for several subjects"}
    ]},
    {"smiles": "COc1ccc(C2CNC(=O)C2)cc1OC1CCCC1", "note": "(centres unmarked) [Rolipram, rolipram]", "values": [
      {"measurement": "undesirable side effects, first phase", "setting": "humans", "result": "produced a queasy sensation for several of the subjects"},
      {"measurement": "side effects", "setting": "humans; one subject took 250 μg of rolipram", "result": "experienced nausea, vomiting, and diarrhea"}
    ]},
    {"smiles": "COc1cccc(C2(O)CCCCC2CN(C)C)c1", "note": "(centres unmarked) [Tramadol, tramadol]", "values": [
      {"measurement": "pain threshold and tolerance latencies vs baseline and placebo, agents administered alone", "setting": "Healthy volunteers", "result": "did not generally exhibit analgesia on the cold pressor"}
    ]},
    {"smiles": "O=C1CC[C@@]2(O)[C@H]3Cc4ccc(O)c5c4[C@@]2(CCN3CC2CC2)[C@H]1O5", "note": "[ULDN, naltrexone]", "values": [
      {"measurement": "side effects / complaints, second phase", "setting": "humans", "result": "had neither benefit nor side effects"},
      {"measurement": "therapeutic benefits on Distress Dysfunction symptoms", "setting": "[1]; once daily", "result": "nearly half of the patients experienced no effect from ULDN alone"},
      {"measurement": "improvement in symptoms in patients on ongoing SSRI or SNRI medication", "setting": "[1]; ULDN 5 μg added, patients on Lexapro, Prozac, Paxil or Effexor", "result": "10 patients had dramatic improvement in their symptoms"},
      {"measurement": "consistency of benefit by naltrexone dose", "setting": "[2]", "result": "the benefits from using the relatively higher dose (125 micrograms) were more consistent within and among patients"}
    ]},
    {"smiles": "CC(=O)Nc1ccc(O)cc1", "note": "[acetaminophen]", "values": [
      {"measurement": "pain threshold and tolerance latencies vs baseline and placebo, agents administered alone", "setting": "Healthy volunteers", "result": "no more effective than placebo in the cold pressor paradigm"},
      {"measurement": "increase in pain threshold/tolerance (over baseline)", "setting": "subjects", "result": "in order of greatest pain relief, was (3), then (2) then (1)"},
      {"measurement": "therapeutic benefits on Distress Dysfunction symptoms", "setting": "[1]; once daily", "result": "no therapeutic benefits were reported or observed"},
      {"measurement": "maintenance treatment, remaining six months of the study", "setting": "[1]; each patient on the formulation that worked best", "result": "used effectively by four pain patients"},
      {"measurement": "increased distress symptoms", "setting": "[1]; human, in vivo", "result": "at least half of the patients reported some degree of increased distress symptoms"}
    ]},
    {"smiles": "CC(=O)O[C@H](CC(=O)[O-])C[N+](C)(C)C", "note": "[acetyl-L-carinitine]", "values": [
      {"measurement": "improvement of ADHD behavior and attention", "setting": "males with ADHD", "result": "no observable benefits"}
    ]},
    {"smiles": "CC(=O)Oc1ccccc1C(=O)O", "note": "[aspirin]", "values": [
      {"measurement": "pain threshold and tolerance latencies vs baseline and placebo, agents administered alone", "setting": "Healthy volunteers", "result": "no more effective than placebo in the cold pressor paradigm"},
      {"measurement": "increase in pain threshold/tolerance (over baseline)", "setting": "subjects", "result": "showed no change in pain threshold when administered alone"}
    ]},
    {"smiles": "Cn1c(=O)c2c(ncn2C)n(C)c1=O", "note": "[caffeine]", "values": [
      {"measurement": "pain threshold and tolerance latencies vs baseline and placebo, agents administered alone", "setting": "Healthy volunteers", "result": "tended to result in shorter pain tolerance latencies"},
      {"measurement": "undesirable side effects, first phase", "setting": "humans", "result": "produced mild agitation for several subjects"},
      {"measurement": "side effects / complaints, second phase", "setting": "humans", "result": "complained of these symptoms when given these drugs alone"},
      {"measurement": "pain thresholds and tolerance as compared to baseline latencies", "setting": "humans", "result": "trend toward increased pain sensitivity (hyperalgesia)"},
      {"measurement": "increased distress symptoms", "setting": "[1]; agent administered alone, once daily, 2 weeks", "result": "at least half of the patients reported some degree of increased distress symptoms"}
    ]},
    {"smiles": "N[C@@H](CCC(=O)O)C(=O)O", "note": "[glutamic acid]", "values": [
      {"measurement": "pain threshold and tolerance latencies vs baseline and placebo, agents administered alone", "setting": "Healthy volunteers", "result": "showed clear hyperalgesic effects when administered alone; also recorded: tended to result in shorter pain tolerance latencies"}
    ]},
    {"smiles": "CC(C)Cc1ccc(C(C)C(=O)O)cc1", "note": "(centres unmarked) [ibuprophen]", "values": [
      {"measurement": "pain threshold and tolerance latencies vs baseline and placebo, agents administered alone", "setting": "Healthy volunteers", "result": "no more effective than placebo in the cold pressor paradigm"}
    ]},
    {"smiles": "O=S(=O)([O-])[O-].[Mg+2]", "note": "[magnesium sulfate]", "values": [
      {"measurement": "undesirable side effects, first phase", "setting": "humans", "result": "produced mild queasy feelings for several subjects"},
      {"measurement": "side effects / complaints, second phase", "setting": "humans", "result": "had neither benefit nor side effects"}
    ]},
    {"smiles": "COC(=O)C(c1ccccc1)C1CCCCN1", "note": "(centres unmarked) [methylphenidate]", "values": [
      {"measurement": "side effects", "setting": "males with ADHD; single case studies", "result": "produced mild restlessness, sleep difficulties, and reduced appetite; also recorded: several undesirable side-effects, including insomnia, anorexia, and agitation"},
      {"measurement": "improvement of ADHD behavior and attention", "setting": "males with ADHD", "result": "only modest improvements; also recorded: almost no benefit"}
    ]},
    {"smiles": "COc1ccc2c3c1O[C@H]1C(=O)CC[C@@]4(O)[C@@H](C2)N(C)CC[C@]314", "note": "[oxycodone (5 mg), oxycodone]", "values": [
      {"measurement": "pain threshold and tolerance latencies vs baseline and placebo, agents administered alone", "setting": "Healthy volunteers", "result": "consistently showed this effect"},
      {"measurement": "pain threshold and tolerance latencies vs baseline and placebo, agents administered alone", "setting": "Healthy volunteers; listed as lower dose oxycodone", "result": "did not generally exhibit analgesia on the cold pressor"}
    ]},
    {"smiles": "O=C(Nc1c(Cl)cncc1Cl)c1ccc(OC(F)F)c(OCC2CC2)c1", "note": "[roflumilast]", "values": [
      {"measurement": "pain threshold and tolerance latencies vs baseline and placebo, agents administered alone", "setting": "Healthy volunteers", "result": "showed clear hyperalgesic effects when administered alone; also recorded: tended to result in shorter pain tolerance latencies"},
      {"measurement": "therapeutic benefits on Distress Dysfunction symptoms", "setting": "[1]; once daily", "result": "no therapeutic benefits were reported or observed"},
      {"measurement": "increased distress symptoms", "setting": "[1]; human, in vivo", "result": "at least half of the patients reported some degree of increased distress symptoms"}
    ]},
    {"smiles": "Cn1c(=O)c2[nH]cnc2n(C)c1=O", "note": "[theophylline]", "values": [
      {"measurement": "pain threshold and tolerance latencies vs baseline and placebo, agents administered alone", "setting": "Healthy volunteers", "result": "tended to result in shorter pain tolerance latencies"},
      {"measurement": "side effects / complaints, second phase", "setting": "humans", "result": "complained of these symptoms when given these drugs alone"},
      {"measurement": "pain thresholds and tolerance as compared to baseline latencies", "setting": "humans", "result": "trend toward increased pain sensitivity (hyperalgesia)"}
    ]}
  ]
}
